Laboratory results reported in patent US20080194499A1, “Composition for selective serotonin reuptake inhibition and process thereof” (priority 2007, published 2008).

Tests used:
Assay type in all cases: in vivo, Swiss albino mice
mice [1] = test: Forced swim test after reserpine administration
Description: Reserpine Antagonism Depletion of biogenic amines in brain induces not only catalepsy but also hypothermia in rodents. The decrease of body temperature induced by reserpine is antagonized by antidepressants, MAO-inhibitors and central stimulants. Reserpine also decreases the levels of brain neuroamines like serotonin. […] Forced Swim Test after Reserpine Administration Male Swiss albino mice weighing 25-30 g would be used. All the animals would be Pre trained individually to swim for 15 minutes in vertical plexiglass cylinder (25×23 cm) containing 12 cm of water maintained at 25° C. They would be injected with 5 mg/kg reserpine i.p. after 20 hr of pretraining.

mice [2] = test: Locomotor activity test after reserpine administration
Description: The intra-peritoneal administration of reserpine (5 mg/kg, i.p.) in mice leads to reduce locomotor activity which can be antagonized by antidepressants, MAO-inhibitors and central stimulants. Male Swiss albino mice weighing 25-30 g would be used.

mice [3] = test: Forced swim test; settings: 100 mg/kg p.o.
Description: Mice forced to swim in a restricted space from which they cannot escape are induced to a characteristic behavior of immobility.
Male Swiss albino mice weighing 25-30 g would be brought into the laboratory at least one day before the experiment and would be housed separately in cages. Mice would be individually forced to swim inside a vertical Plexiglas cylinder (25×23 cm) containing 12 cm of water maintained at 25° C.
After 2-3 min activity begins to subside and to be interspersed with phases of immobility or floating of increasing length. After 5-6 min immobility reaches a plateau where the mice remain immobile for approximately 80% of the time. After 15 min in the water the mice would be removed and would be allowed to dry in a heated enclosure (32° C.) before being returned to their home cages. They would again be placed in the cylinder 24 hr later and the total duration of immobility would be counted for the last 4 min of 6 min test session. An animal is judged to be immobile whenever it remains floating passively in the water in a slightly hunched but upright position, its nose just above the surface.

mice [4] = test: Locomotor activity in mice (Actophotometer)
Description: Effect of Test Compound on Locomotor Activity in Mice This test is conducted to rule out the sedative aspect of the anti-depressants. Besides, it can also eliminate certain muscle relaxant effects of the drug. Swiss albino mice are tested in a locomotors chamber with laser sensors to check their movements. The locomotors score is a direct function of the mobility of the animal. Decrease in mobility could be due to sedative effect and muscle relaxant effect. Swiss albino mice of either sex weighing 25-30 g would be housed in plastic cages for at least 10 days prior to testing. Animals would be allowed to adapt to the testing environment for 1 hr before testing. […] For the test the mice would be individually placed in Actophotometer.

re uptake of serotonin = test: 5-Hydroxytryptophan (L 5-HTP) potentiation in mice; settings: 64 mg/kg p.o.
Description: 5-Hydroxytryptophan (L 5-HTP) Potentiation in Mice
Several antidepressant agents potentiate serotonin effects by a block of the re uptake of serotonin. 5-Hydroxytryptophan is used as the precursor of serotonin.
Groups of 6 Swiss albino mice (25-30 g) would be used. […] The mice would be then placed into glass bell jars and the number of head twitches would be counted in five 2-min intervals (between 14 and 16, 24 and 26, 34 and 36, 44 and 46 and 54 and 56 min).

mice [5] = test: Tail suspension test in mice; settings: 64 mg/kg p.o.
Description: Effect of Test Compound on Tail Suspension in Mice
This test is used to evaluate potential antidepressants by determining the percentage decrease in immobility in rodents. […] Clinically effective anti-dependents reduce the immobility that mice display after active and unsuccessful attempts to escape when suspended by tail.
Swiss albino mice of either sex weighing 25-30 g would be housed in plastic cages for at least 10 days prior to testing. Animals would be allowed to adapt to the testing environment for 1 hr before testing. […] For the test, the mice would be suspended on the edge of a shelf 58 cm above a tabletop by adhesive tape placed approximately 1 cm from the tip of the tail. The duration of immobility would be recorded for a period of 6 min continuously. Mice are considered immobile when they hang passively and completely motionless for at least […].
The percentage of animals showing the passive behavior is counted and compared with vehicle treated controls using various doses.

SMILES | TOTAL IMMOBILITY TIME (mice [1]; 100 mg/kg oral, 4 h after reserpine 5 mg/kg i.p., 6 min swim) | % DECREASE IN IMMOBILITY (mice [1]; 100 mg/kg oral, vs reserpine group) | % INCREASE IN LOCOMOTOR ACTIVITY (mice [2]; 64 mg/kg oral, vs reserpine group) | TOTAL IMMOBILITY TIME (mice [3]; one hour before test, last 4 min of 6 min session) | % DECREASE IN IMMOBILITY (mice [3]; vs vehicle group) | TOTAL LOCOMOTOR ACTIVITY COUNTS (mice [4]; 64 mg/kg p.o., 60 min before test, 10 min count) | % INCREASE IN LOCOMOTOR ACTIVITY (mice [4]; 64 mg/kg p.o., vs vehicle group) | sedative effect (in words) (mice [4]; mice, locomotor activity test) | TOTAL NO OF HEAD TWITCHES MEAN ± SEM (re uptake of serotonin; 60 min before 75 mg/kg i.p. 5-HTP) | % INCREASE IN NO OF HEAD TWITCHES (re uptake of serotonin; vs vehicle group) | TOTAL IMMOBILITY TIME (mice [5]; 60 min before test, 6 min recording) | % DECREASE IN IMMOBILITY (mice [5]; vs vehicle group) | TOTAL IMMOBILITY TIME (mice [1]; reserpine 5 mg/kg i.p. alone) | TOTAL LOCOMOTOR ACTIVITY COUNTS (mice [2]; reserpine 5 mg/kg i.p. alone)
CN(C)CCCN1c2ccccc2CCc2ccccc21 [Imipramine] | 063.57 ± 3.320 s | 71.24% | 079.91% | 45.17 ± 4.450 s | 71.44% | 127.00 ± 06.90 | −38.80% | induces sedation | 13.25 ± 2.477 | −38.73% | 90.90 ± 7.690 s | 51.88% | – | –
COC(=O)[C@H]1[C@H]2C[C@@H]3c4[nH]c5cc(OC)ccc5c4CCN3C[C@H]2C[C@@H](OC(=O)c2cc(OC)c(OC)c(OC)c2)[C@@H]1OC [Reserpine] | – | – | – | – | – | – | – | – | – | – | – | – | 221.60 ± 6.793 s | 121.17 ± 06.112
